Values quoted from earlier work, collected in paper PMC4533831 (Molecular pharmaceutics, 2015).

Tested on: IGF2R
Settings: read-out: relative binding affinity IC50; affinity to IGF2R

- IC50: 23 µM
Compound: O=C[C@@H](O)[C@@H](O)[C@H](O)[C@H](O)COP(=O)(O)O [M6P, mannose-6-phosphate]
